Results as given in ChEMBL document CHEMBL5050829, “Inhibitors of cytochrome P450 family 7 subfamily B member 1 (CYP7B1) for use in treating diseases” (2021).
Calls of active or inactive are those of the source. No cut-off for these calls is given here.

Tests used:
Mus musculus [1] = species on record: Mus musculus; assay: Inhibition of Cyp7b1 in cigarette smoke extract (CSE)-stimulated mouse airways at 0.1 to 1 uM assessed as impairment of activated B-cell migration towards supernatant culture relative to control; format: tissue-based; conditions: Respiratory airway, dose 0.1-1 µM
Mus musculus [2] = species on record: Mus musculus; assay: Inhibition of Cyp7b1 in cigarette smoke extract (CSE)-stimulated mouse airways at 1 uM assessed as impairment of activated B-cell migration towards supernatant culture relative to control; format: tissue-based; conditions: Respiratory airway
Mus musculus [3] = assay: Protection against cigarette smoke-induced COPD in C57BL/6 mouse exposed with cigarette smoke for 4 months assessed as reduction in emphysema in lungs at 80 mg/kg, ip administered 3 times per week from 2 to 4 months; format: functional, organism-based; conditions: Lung
Mus musculus [4] = assay: Protection against cigarette smoke-induced COPD in C57BL/6 mouse exposed with cigarette smoke for 4 months assessed as reduction in iBALT formation in lungs at 80 mg/kg, ip administered 3 times per week from 2 to 4 months; format: functional, organism-based; conditions: Lung
Mus musculus [5] = species on record: Mus musculus; assay: Inhibition of Cyp7b1 in cigarette smoke extract (CSE)-stimulated mouse airways at 1 uM assessed as reduction in Ch25h mRNA expression relative to control; format: tissue-based; conditions: Respiratory airway
Mus musculus [6] = species on record: Mus musculus; assay: Inhibition of Cyp7b1 in cigarette smoke extract (CSE)-stimulated mouse airways at 1 uM assessed as reduction in cyp7b1 mRNA expression relative to control; format: tissue-based; conditions: Respiratory airway
Mus musculus [7] = assay: Protection against cigarette smoke-induced COPD in C57BL/6 mouse exposed with cigarette smoke for 4 months assessed as reduction in lung volume at 80 mg/kg, ip administered 3 times per week from 2 to 4 months; format: functional, organism-based
Mus musculus [8] = assay: Protection against cigarette smoke-induced COPD in C57BL/6 mouse exposed with cigarette smoke for 4 months assessed as reduction in macrophage count in BALF at 80 mg/kg, ip administered 3 times per week from 2 to 4 months; format: functional, organism-based
Mus musculus [9] = assay: Protection against cigarette smoke-induced COPD in C57BL/6 mouse exposed with cigarette smoke for 4 months assessed as reduction in lymphocyte count in BALF at 80 mg/kg, ip administered 3 times per week from 2 to 4 months; format: functional, organism-based
Mus musculus [10] = assay: Protection against cigarette smoke-induced COPD in C57BL/6 mouse exposed with cigarette smoke for 6 months assessed as reduction in iBALT formation in lungs at 80 mg/kg, ip administered 3 times per week from 2 to 4 months; format: functional, organism-based; conditions: Lung
Mus musculus [11] = assay: Protection against cigarette smoke-induced COPD in C57BL/6 mouse exposed with cigarette smoke for 6 months assessed as reduction in emphysema in lungs at 80 mg/kg, ip administered 3 times per week from 2 to 4 months; format: functional, organism-based; conditions: Lung
Mus musculus [12] = assay: Protection against cigarette smoke-induced COPD in C57BL/6 mouse exposed with cigarette smoke for 6 months assessed as reduction in lung volume at 80 mg/kg, ip administered 3 times per week from 2 to 4 months; format: functional, organism-based
Mus musculus [13] = assay: Protection against cigarette smoke-induced COPD in C57BL/6 mouse exposed with cigarette smoke for 6 months assessed as reduction in macrophage count in BALF at 80 mg/kg, ip administered 3 times per week from 2 to 4 months; format: functional, organism-based
B cell [14] = assay: Inhibition of Cyp7b1 in cigarette smoke extract (CSE) and LPS-stimulated mouse B cells at 0.3 to 1 uM assessed as reduction in cyp7b1 mRNA expression and measured by RT-PCR analysis relative to control; format: cell-based; conditions: dose 0.3-1 µM
B cell [15] = assay: Inhibition of Cyp7b1 in cigarette smoke extract (CSE) and LPS-stimulated mouse B cells at 0.3 to 1 uM assessed as reduction in Ch25h mRNA expression and measured by RT-PCR analysis relative to control; format: cell-based; conditions: dose 0.3-1 µM
B cell [16] = assay: Inhibition of Cyp7b1 in cigarette smoke extract (CSE) and LPS-stimulated mouse B cells at 0.3 to 1 uM assessed as reduction in TNF-alpha mRNA expression and measured by RT-PCR analysis relative to control; format: cell-based; conditions: dose 0.3-1 µM

Compound: CC(C)c1nc(CN(C)C(=O)N[C@H](C(=O)N[C@@H](Cc2ccccc2)C[C@H](O)[C@H](Cc2ccccc2)NC(=O)OCc2cncs2)C(C)C)cs1
- inhibition (Mus musculus [1]): Active

Compound: CC(C)(C(=O)c1cccnc1)c1cccnc1
- inhibition (Mus musculus [2]): Active

Compound: Clc1ccc(COC(Cn2ccnc2)c2ccc(Cl)cc2Cl)c(Cl)c1 (stereo not drawn)
- inhibition (Mus musculus [2]): Active

Compound: Clc1ccccc1C(c1ccccc1)(c1ccccc1)n1ccnc1
- Activity (Mus musculus [3]): Active
- Activity (Mus musculus [4]): Active
- inhibition (Mus musculus [2]): Active
- inhibition (Mus musculus [5]): inactive
- inhibition (Mus musculus [6]): Active
- Activity (Mus musculus [7]): Active
- Activity (Mus musculus [8]): Active
- Activity (Mus musculus [9]): Active
- Activity (Mus musculus [10]): Active
- Activity (Mus musculus [11]): Active
- Activity (Mus musculus [12]): Active
- Activity (Mus musculus [13]): Active
- inhibition (B cell [14]): Active
- inhibition (B cell [15]): Active
- inhibition (B cell [16]): Active
